In PubChem BioAssay (NCI):
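Cultured in 96-well plates, cells were exposed to test compound for 48 hours across five concentrations. GI50 marks 50% less growth. Definition used: TGI = concentration required for complete inhibition of growth.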

What was measured:
Assay in all cases: NCI-60 cell line screen, 48 h
[1] = tested on: UO-31 renal
[2] = tested on: LOX IMVI melanoma
[3] = tested on: RPMI-8226 leukemia
[4] = tested on: U251 CNS
[5] = tested on: MALME-3M melanoma
[6] = tested on: NCI-H226 lung
[7] = tested on: SW-620 colon
[8] = tested on: RXF 393 renal
[9] = tested on: UACC-257 melanoma
[10] = tested on: EKVX NSCLC
[11] = tested on: SK-MEL-28 melanoma
[12] = tested on: M14 melanoma
[13] = tested on: 786-0 renal
[14] = tested on: DU-145 prostate
[15] = tested on: PC-3 prostate
[16] = tested on: MOLT-4 leukemia
[17] = tested on: HCT-15 colon
[18] = tested on: NCI/ADR-RES ovarian
[19] = tested on: SK-MEL-5 melanoma
[20] = tested on: BT-549 breast
[21] = tested on: TK-10 renal
[22] = tested on: NCI-H460 lung
[23] = tested on: SK-OV-3 ovarian
[24] = tested on: CAKI-1 renal
[25] = tested on: HT29 colon
[26] = tested on: COLO 205 colon
[27] = tested on: CCRF-CEM leukemia
[28] = tested on: K-562 leukemia
[29] = tested on: HOP-62 NSCLC
[30] = tested on: MDA-MB-231 breast
[31] = tested on: SF-268 CNS
[32] = tested on: MDA-MB-435
[33] = tested on: SN12C renal
[34] = tested on: A549 NSCLC
[35] = tested on: OVCAR-8 ovarian
[36] = tested on: HCC-2998 colon
[37] = tested on: OVCAR-5 ovarian
[38] = tested on: UACC-62 melanoma
[39] = tested on: HS 578T breast
[40] = tested on: ACHN renal
[41] = tested on: NCI-H522 lung
[42] = tested on: SNB-19 CNS
[43] = tested on: HCT-116 colon
[44] = tested on: T-47D breast
[45] = tested on: HL-60(TB) leukemia
[46] = tested on: SR leukemia
[47] = tested on: HOP-92 NSCLC
[48] = tested on: MCF7 breast
[49] = tested on: NCI-H23 lung
[50] = tested on: IGROV1 ovarian
[51] = tested on: SK-MEL-2 melanoma
[52] = tested on: OVCAR-4 ovarian
[53] = tested on: KM12 colon
[54] = tested on: MDA-MB-468 breast
[55] = tested on: SNB-75 CNS
[56] = tested on: SF-295 CNS
[57] = tested on: SF-539 CNS
[58] = tested on: OVCAR-3 ovarian
[59] = tested on: A498 renal

SMILES: COc1ccc(C2(SCCNCc3cc(N(C)C)ccn3)c3ccccc3C=Cc3ccccc32)cc1
- GI50 [1]: 1760 nM
- TGI [1]: 17800 nM
- GI50 [2]: 557 nM
- TGI [2]: 12300 nM
- GI50 [3]: 124 nM
- TGI [3]: > 49000 nM
- GI50 [4]: 62 nM
- TGI [4]: 12100 nM
- GI50 [5]: 514 nM
- TGI [5]: 15800 nM
- GI50 [6]: 4800 nM
- TGI [6]: 19200 nM
- GI50 [7]: 74.6 nM
- TGI [7]: 12500 nM
- GI50 [8]: 283 nM
- TGI [8]: 3390 nM
- GI50 [9]: 10800 nM
- TGI [9]: 23900 nM
- GI50 [10]: 382 nM
- TGI [10]: 19400 nM
- GI50 [11]: 5290 nM
- TGI [11]: 21200 nM
- GI50 [12]: 34.7 nM
- TGI [12]: 621 nM
- GI50 [13]: 873 nM
- TGI [13]: 17200 nM
- GI50 [14]: 335 nM
- TGI [14]: 3630 nM
- GI50 [15]: 395 nM
- TGI [15]: 6060 nM
- GI50 [16]: 610 nM
- TGI [16]: 12000 nM
- GI50 [17]: 51 nM
- TGI [17]: 13500 nM
- GI50 [18]: 205 nM
- TGI [18]: 513 nM
- GI50 [19]: 319 nM
- TGI [19]: 11800 nM
- GI50 [20]: 471 nM
- TGI [20]: 9580 nM
- GI50 [21]: 12100 nM
- TGI [21]: 25800 nM
- GI50 [22]: 281 nM
- TGI [22]: 11200 nM
- GI50 [23]: 497 nM
- TGI [23]: 13900 nM
- GI50 [24]: 1330 nM
- TGI [24]: 19200 nM
- GI50 [25]: 337 nM
- TGI [25]: 7000 nM
- GI50 [26]: 169 nM
- TGI [26]: 521 nM
- GI50 [27]: 106 nM
- TGI [27]: 19300 nM
- GI50 [28]: 40.7 nM
- TGI [28]: 17400 nM
- GI50 [29]: 528 nM
- TGI [29]: 17900 nM
- GI50 [30]: 143 nM
- TGI [30]: 446 nM
- GI50 [31]: 717 nM
- TGI [31]: 18500 nM
- GI50 [32]: 25.3 nM
- TGI [32]: 63.9 nM
- GI50 [33]: 290 nM
- TGI [33]: 15200 nM
- GI50 [34]: 147 nM
- TGI [34]: 16800 nM
- GI50 [35]: 238 nM
- TGI [35]: 15700 nM
- GI50 [36]: 93.2 nM
- TGI [36]: 527 nM
- GI50 [37]: 364 nM
- TGI [37]: 12500 nM
- GI50 [38]: 460 nM
- TGI [38]: 17700 nM
- GI50 [39]: 204 nM
- TGI [39]: 1770 nM
- GI50 [40]: 1900 nM
- TGI [40]: 19900 nM
- GI50 [41]: 90 nM
- TGI [41]: 455 nM
- GI50 [42]: 534 nM
- TGI [42]: 19100 nM
- GI50 [43]: 40.4 nM
- TGI [43]: 11600 nM
- GI50 [44]: 475 nM
- TGI [44]: 18700 nM
- GI50 [45]: 62.3 nM
- TGI [45]: 13700 nM
- GI50 [46]: 57 nM
- TGI [46]: > 33200 nM
- GI50 [47]: 1310 nM
- TGI [47]: 6250 nM
- GI50 [48]: 40 nM
- TGI [48]: 13200 nM
- GI50 [49]: 463 nM
- TGI [49]: 13900 nM
- GI50 [50]: 459 nM
- TGI [50]: 19200 nM
- GI50 [51]: 252 nM
- TGI [51]: 724 nM
- GI50 [52]: 5150 nM
- TGI [52]: 22000 nM
- GI50 [53]: 322 nM
- TGI [53]: 11700 nM
- GI50 [54]: 50.9 nM
- TGI [54]: 388 nM
- GI50 [55]: 176 nM
- TGI [55]: 907 nM
- GI50 [56]: 268 nM
- TGI [56]: 14200 nM
- GI50 [57]: 227 nM
- TGI [57]: 594 nM
- GI50 [58]: 342 nM
- TGI [58]: 12000 nM
- GI50 [59]: 11500 nM
- TGI [59]: 24900 nM
